The values that follow come from patent US9382203B2, “N-carbamoylmethyl-4-(R)-phenyl-2-pyrrolidinone, method of its preparation and pharmaceutical use” (Joint Stock Company (JSC) “OLAINFARM”, priority 2006, dated 2016).

Marks after values point to notes of the source that are not given here.

Type in all cases: in vivo
The subject of test [1] is male ICR mice. Description: Open field test, locomotor activity. The conditions noted are these: for Exploratory activity counts / Vertical activity counts / Horizontal activity counts: male ICR mice.
For test [2], the system named is male ICR mice. Description: Porsolt forced swim test (FST). The conditions noted are these: for Immobility in FST (in words): after preliminary treatment, mice; for Immobilization time: i.p. 100 mg/kg, 1 hour before the test, male ICR mice.
Test [3] concerns male ICR mice. Description: Muscle relaxant activity, rota rod test. Particulars: Mus musculus, ip; i.p. administration in dosages 50; 100; 250 and 500 mg/kg.
The test system of test [4] is male ICR mice. Nature of the test: Analgesic effect, hot plate test. Particulars: Mus musculus, ip; i.p. administration in dosages 50; 100; 250 and 500 mg/kg.
Test [5] has as its system male ICR mice. Description: Muscle relaxant activity, traction test. Particulars: Mus musculus, ip; i.p. administration in dosages 50; 100; 250 and 500 mg/kg.
The test system of test [6] is male ICR mice. Description: Muscle relaxant activity, chimney test. Particulars: Mus musculus, ip; i.p. administration in dosages 50; 100; 250 and 500 mg/kg.

As to `NC(=O)CN1C[C@@H](c2ccccc2)CC1=O` [R-Carphedon, N-Carbamoylmethyl-4(R)-phenyl-2-pyrrolidinone], the Exploratory activity counts is given as 15.5 ± 2.9 counts in the test on male ICR mice [1] (30 min after i.p. 50 mg/kg), 16.4 ± 3.6 counts in the test with male ICR mice [1] (60 min after i.p. 50 mg/kg) and 17.8 ± 4.7 counts in the test on male ICR mice [1] (120 min after i.p. 50 mg/kg). Moreover, the Vertical activity counts in the test on male ICR mice [1] (30 min after i.p. 50 mg/kg) was 10.0 ± 1.5 counts; in the test on male ICR mice [1] (60 min after i.p. 50 mg/kg), 12.5 ± 3.2 counts; with male ICR mice [1] (120 min after i.p. 50 mg/kg) it was 11.6 ± 4.0 counts. Further, the “Activity at the end of the 120 min observation period relative to S-Carphedon” value with male ICR mice [1] (i.p. 50 mg/kg) was “about two times higher”. Also, the “Animal activity in open field test (in words)” value with male ICR mice [1] (i.p. 50 mg/kg, 120 min observation period) is “prolonged and stable increase in animal activity”. Further, the “Immobility in FST (in words)” value in the test on male ICR mice [2] was “did not spent any time immobile”. The Immobilization time in the test on male ICR mice [2] is given as 0^## sec. The ED50 was 193 ± 26 mg/kg in the test on male ICR mice [3], 10 ± 42 mg/kg with male ICR mice [4], 456 ± 122 mg/kg in the test on male ICR mice [5] and 199 ± 38 mg/kg with male ICR mice [6].

On to `NC(=O)CN1C[C@H](c2ccccc2)CC1=O` [S-Carphedon, N-Carbamoylmethyl-4(S)-phenyl-2-pyrrolidinone], for which the results for the Horizontal activity counts in the test on male ICR mice [1] (30 min after i.p. 50 mg/kg) and in the test on male ICR mice [1] (120 min after i.p. 50 mg/kg) were 56.3 ± 5.7 counts and 36.4 ± 7.1 counts, respectively. Moreover, the Vertical activity counts was found to be 7.0 ± 1.6 counts with male ICR mice [1] (30 min after i.p. 50 mg/kg), 7.0 ± 2.8 counts with male ICR mice [1] (60 min after i.p. 50 mg/kg) and 4.9 ± 1.7 counts with male ICR mice [1] (120 min after i.p. 50 mg/kg). For the same compound, the Exploratory activity counts is on record as 7.8 ± 4.2 counts in the test with male ICR mice [1] (60 min after i.p. 50 mg/kg) and 11.5 ± 2.8 counts in the test with male ICR mice [1] (120 min after i.p. 50 mg/kg). Besides, the “Immobility in FST (in words)” value in the test with male ICR mice [2] is given as “immobilization in response to stress factor”. Moreover, in the test on male ICR mice [2], the Immobilization time amounted to 110 ± 12 s. The ED50 with male ICR mice [3] stood at 459 ± 87 mg/kg; in the test with male ICR mice [4], 50 ± 63 mg/kg; in the test on male ICR mice [5] it was 548 ± 75 mg/kg; in the test on male ICR mice [6] it was 286 ± 78 mg/kg.
